Results taken from patent US20220096516A1, “OLIGONUCLEOTIDE MOLECULE AND APPLICATION THEREOF IN TUMOR THERAPY” (Ractigen Therapeutics, priority 2019, published 2022).
d = 2'-deoxy (DNA); r = 2'-OH (RNA)

Tested on: LHPP gene
Assay: High-throughput screening of saRNAs targeting LHPP promoter: LHPP mRNA by one-step RT-qPCR in Huh7 cells
Type: cell-based, human
Details: 10 nM saRNA, 72 hours, relative to control (Mock)
In short: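 Huh7 cells were transfected with 10 nM saRNA using RNAiMax and lysed 72 h later. LHPP mRNA was quantified by one-step RT-qPCR in triplicate wells. Expression was normalised to HPRT1 and TBP and given as fold change versus mock-transfected cells.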

| Substance | Fold of changes in relative LHPP mRNA expression level [fold] | Fold of changes in relative LHPP mRNA expression level (log2) |
| --- | --- | --- |
| RAG7-686: saRNA duplex; sense UGCAUCCUCAUCUAUGCAGTT (SEQ ID NO: 86), antisense CUGCAUAGAUGAGGAUGCATT (SEQ ID NO: 250) (sugars from the 5' end r19 d2, backbone not given here) | 1.25 | 0.32 |
| RAG7-687: saRNA duplex; sense AUGCAUCCUCAUCUAUGCATT (SEQ ID NO: 162), antisense UGCAUAGAUGAGGAUGCAUTT (SEQ ID NO: 326) (sugars from the 5' end r19 d2, backbone not given here) | 1.10 | 0.14 |
| RAG7-690: saRNA duplex; sense CCUAUGCAUCCUCAUCUAUTT (SEQ ID NO: 42), antisense AUAGAUGAGGAUGCAUAGGTT (SEQ ID NO: 206) (sugars from the 5' end r19 d2, backbone not given here) | 1.42 | 0.51 |
| RAG7-691: saRNA duplex; sense UCCUAUGCAUCCUCAUCUATT (SEQ ID NO: 30), antisense UAGAUGAGGAUGCAUAGGATT (SEQ ID NO: 194) (sugars from the 5' end r19 d2, backbone not given here) | 1.50 | 0.58 |
| RAG7-692: saRNA duplex; sense GUCCUAUGCAUCCUCAUCUTT (SEQ ID NO: 124), antisense AGAUGAGGAUGCAUAGGACTT (SEQ ID NO: 288) (sugars from the 5' end r19 d2, backbone not given here) | 1.17 | 0.22 |
| RAG7-693: saRNA duplex; sense GGUCCUAUGCAUCCUCAUCTT (SEQ ID NO: 98), antisense GAUGAGGAUGCAUAGGACCTT (SEQ ID NO: 262) (sugars from the 5' end r19 d2, backbone not given here) | 1.22 | 0.29 |
| RAG7-695: saRNA duplex; sense CAGGUCCUAUGCAUCCUCATT (SEQ ID NO: 54), antisense UGAGGAUGCAUAGGACCUGTT (SEQ ID NO: 218) (sugars from the 5' end r19 d2, backbone not given here) | 1.36 | 0.44 |
| RAG7-696: saRNA duplex; sense CCAGGUCCUAUGCAUCCUCTT (SEQ ID NO: 17), antisense GAGGAUGCAUAGGACCUGGTT (SEQ ID NO: 181) (sugars from the 5' end r19 d2, backbone not given here) | 1.58 | 0.66 |
| RAG7-697: saRNA duplex; sense CCCAGGUCCUAUGCAUCCUTT (SEQ ID NO: 41), antisense AGGAUGCAUAGGACCUGGGTT (SEQ ID NO: 205) (sugars from the 5' end r19 d2, backbone not given here) | 1.43 | 0.51 |
| RAG7-698: saRNA duplex; sense GCCCAGGUCCUAUGCAUCCTT (SEQ ID NO: 118), antisense GGAUGCAUAGGACCUGGGCTT (SEQ ID NO: 282) (sugars from the 5' end r19 d2, backbone not given here) | 1.18 | 0.24 |
| RAG7-702: saRNA duplex; sense CUCAGCCCAGGUCCUAUGCTT (SEQ ID NO: 140), antisense GCAUAGGACCUGGGCUGAGTT (SEQ ID NO: 304) (sugars from the 5' end r19 d2, backbone not given here) | 1.14 | 0.19 |
| RAG7-704: saRNA duplex; sense UUCUCAGCCCAGGUCCUAUTT (SEQ ID NO: 112), antisense AUAGGACCUGGGCUGAGAATT (SEQ ID NO: 276) (sugars from the 5' end r19 d2, backbone not given here) | 1.19 | 0.26 |
| RAG7-706: saRNA duplex; sense UCUUCUCAGCCCAGGUCCUTT (SEQ ID NO: 15), antisense AGGACCUGGGCUGAGAAGATT (SEQ ID NO: 179) (sugars from the 5' end r19 d2, backbone not given here) | 1.63 | 0.70 |
| RAG7-707: saRNA duplex; sense UUCUUCUCAGCCCAGGUCCTT (SEQ ID NO: 8), antisense GGACCUGGGCUGAGAAGAATT (SEQ ID NO: 172) (sugars from the 5' end r19 d2, backbone not given here) | 1.72 | 0.78 |
| RAG7-708: saRNA duplex; sense UUUCUUCUCAGCCCAGGUCTT (SEQ ID NO: 106), antisense GACCUGGGCUGAGAAGAAATT (SEQ ID NO: 270) (sugars from the 5' end r19 d2, backbone not given here) | 1.21 | 0.27 |
| RAG7-709: saRNA duplex; sense UUUUCUUCUCAGCCCAGGUTT (SEQ ID NO: 126), antisense ACCUGGGCUGAGAAGAAAATT (SEQ ID NO: 290) (sugars from the 5' end r19 d2, backbone not given here) | 1.17 | 0.22 |
| RAG7-710: saRNA duplex; sense GUUUUCUUCUCAGCCCAGGTT (SEQ ID NO: 122), antisense CCUGGGCUGAGAAGAAAACTT (SEQ ID NO: 286) (sugars from the 5' end r19 d2, backbone not given here) | 1.18 | 0.24 |
| RAG7-715: saRNA duplex; sense GUCCCGUUUUCUUCUCAGCTT (SEQ ID NO: 148), antisense GCUGAGAAGAAAACGGGACTT (SEQ ID NO: 312) (sugars from the 5' end r19 d2, backbone not given here) | 1.13 | 0.18 |
| RAG7-720: saRNA duplex; sense UGAUAGUCCCGUUUUCUUCTT (SEQ ID NO: 62), antisense GAAGAAAACGGGACUAUCATT (SEQ ID NO: 226) (sugars from the 5' end r19 d2, backbone not given here) | 1.33 | 0.41 |
| RAG7-721: saRNA duplex; sense GUGAUAGUCCCGUUUUCUUTT (SEQ ID NO: 133), antisense AAGAAAACGGGACUAUCACTT (SEQ ID NO: 297) (sugars from the 5' end r19 d2, backbone not given here) | 1.16 | 0.21 |
| RAG7-722: saRNA duplex; sense UGUGAUAGUCCCGUUUUCUTT (SEQ ID NO: 135), antisense AGAAAACGGGACUAUCACATT (SEQ ID NO: 299) (sugars from the 5' end r19 d2, backbone not given here) | 1.15 | 0.21 |
| RAG7-726: saRNA duplex; sense GCAUUGUGAUAGUCCCGUUTT (SEQ ID NO: 127), antisense AACGGGACUAUCACAAUGCTT (SEQ ID NO: 291) (sugars from the 5' end r19 d2, backbone not given here) | 1.17 | 0.22 |
| RAG7-735: saRNA duplex; sense GGGUUUAACGCAUUGUGAUTT (SEQ ID NO: 114), antisense AUCACAAUGCGUUAAACCCTT (SEQ ID NO: 278) (sugars from the 5' end r19 d2, backbone not given here) | 1.19 | 0.25 |
| RAG7-736: saRNA duplex; sense UGGGUUUAACGCAUUGUGATT (SEQ ID NO: 131), antisense UCACAAUGCGUUAAACCCATT (SEQ ID NO: 295) (sugars from the 5' end r19 d2, backbone not given here) | 1.16 | 0.22 |
| RAG7-738: saRNA duplex; sense CCUGGGUUUAACGCAUUGUTT (SEQ ID NO: 159), antisense ACAAUGCGUUAAACCCAGGTT (SEQ ID NO: 323) (sugars from the 5' end r19 d2, backbone not given here) | 1.11 | 0.15 |
| RAG7-741: saRNA duplex; sense CCUCCUGGGUUUAACGCAUTT (SEQ ID NO: 95), antisense AUGCGUUAAACCCAGGAGGTT (SEQ ID NO: 259) (sugars from the 5' end r19 d2, backbone not given here) | 1.23 | 0.30 |
| RAG7-745: saRNA duplex; sense AAAACCUCCUGGGUUUAACTT (SEQ ID NO: 154), antisense GUUAAACCCAGGAGGUUUUTT (SEQ ID NO: 318) (sugars from the 5' end r19 d2, backbone not given here) | 1.11 | 0.15 |
